Results taken from US12628822B2, “Plant pathogen defence elicitors” (UNIVERSITÉ LIBRE DE BRUXELLES, priority 2020, dated 2026).

System: Arabidopsis transcriptome
Test: cDNA microarray analysis of early transcriptomic changes in Arabidopsis seedlings
Assay type: in vivo, Arabidopsis thaliana
Conditions: 100 μM, 1 h
Description: Arabidopsis thaliana Columbia (Col-0) was the accession used for all the experiments. Seeds were surface sterilised by subsequent treatment with 50% v/v Et-OH and 3% bleach solution in agitation for 5 and 10 min, respectively. Seeds were then washed three times with distilled water and stratified for 3 days at 4° C. in the dark. For qPCR analysis and microarray experiments, seeds were sown on square petri dishes ([…]) containing half strength Murashige and Skoog (MS) salt, 2.5 mM MES, 1% w/v sucrose and 0.8% w/v plant agar. The experiments were performed using 14-day old seedlings grown vertically in a controlled growth cabinet with short day conditions ( 8/16 h light/dark; 100 μmol photons m^−2 s^−1) at 22±0.5° C. Treatments were performed by applying 40-50 μl of fresh-prepared and filtered solution per seedling.
For RNA extraction, 14-day old leaves from ten independent plants were collected at the indicated time point after treatments, pooled and frozen in liquid nitrogen. Total RNA was extracted from 100 mg of ground-frozen samples using the Maxwell® LEV Plant RNA Kit (Promega, Madison, WI, USA) and the RNA integrity was determined through NanoDrop 2000 UV-Vis Spectrophotometer (Thermo Scientific, Loughborough, UK). First-strand cDNA was synthesized by using SOLIScript® RT cDNA synthesis MIX (Solis Biodyne, Tartu, Estonia) and qPCRs were performed using SYBR® Selected MasterMix 2× (Applied Biosystems, Thermo Fisher Scientific, Waltham, USA), following the manufacturers' protocols. The cycling conditions consisted of an initial 7 min at 95° C., followed by 40 two-step cycles at 95° C. for 5 s and at 60° C. for 30 s. Melting curve analysis was performed after cycle completion to validate amplicon identity. Relative expression levels were calculated following the standard curve-based method (Larionov et al. A standard curve based method for relative real time PCR data processing, BMC Bioinformatics. 2005, vol. 6, 1) by using ACTIN as reference. Gene-specific primers used in this work are indicated below.
RNA sample preparation for microarray hybridization was carried out as described in the Applied Biosystems™ GeneChip™ Whole Transcript (WT) PLUS Reagent Kit User Guide (Thermo Fisher Scientific, Waltham, MA, USA). Briefly, 200 ng of total RNA was used to generate double-stranded cDNA. Twelve μg of subsequently synthesized cRNA were purified and reverse transcribed into single-stranded (ss)cDNA, where unnatural dUTP residues were incorporated. Purified and labelled sscDNAs were hybridised to Arabidopsis Gene 1.0 ST arrays (Affymetrix, Santa Clara, CA, USA) and the fluorescent signals were measured with an Applied Biosystems™ GeneChip Scanner 3000 7 G System. Sample processing was performed at a Genomics Core Facility, “KFB—Center of Excellence for Fluorescent Bioanalytics” (Regensburg, Germany).
Normalised probe set signals in log2 scale were calculated by using the RMA algorithm. Average linkage hierarchical clusters of differentially expressed genes were generated by using Cluster 3.0 and visualized by java TreeView.
In Arabidopsis, the DAMPs-dependent elicitation of PTI is known to be accompanied by a deep immune gene transcriptional reprogramming. […] The transcriptomic analysis was carried out by using Arabidopsis 1.0 ST microarray chip (Affymetrix, Santa Clara, CA, USA) and Differentially Expressed Genes (DEGs) were selected using two criteria: log2 expression ratios ≥1.5-fold or […] and Student's t-test p-value≤0.05.

OC[C@H]1O[C@@H](O[C@H]2[C@H](O)[C@@H](O)[C@H](O)O[C@@H]2CO)[C@H](O)[C@@H](O)[C@@H]1O [Cellobiose, β-D-glucopyranosyl(1→4)D-glucopyranose]
changes in expression, number of differentially expressed genes (14-day old Arabidopsis plants): 440 genes
downregulated genes (14-day old Arabidopsis plants): 94 genes
upregulated genes (14-day old Arabidopsis plants): 346 genes
AT1G02360 putative chitinase gene expression (Col-0 plants, vs control): 1.03 fold change
AT1G02920 glutathione S-transferase F7 gene expression (Col-0 plants, vs control): 1.10 fold change
AT1G02930 glutathione S-transferase F6 gene expression (Col-0 plants, vs control): 1.18 fold change
AT1G03220 aspartyl protease-like protein gene expression (Col-0 plants, vs control): 1.08 fold change
AT1G07400 class I heat shock protein gene expression (Col-0 plants, vs control): 2.58 fold change
AT1G11100 SNF2, helicase and zinc-finger domain-containing protein gene expression (Col-0 plants, vs control): 1.70 fold change
AT1G13520 hypothetical protein gene expression (Col-0 plants, vs control): 2.05 fold change
AT1G14540 peroxidase 4 gene expression (Col-0 plants, vs control): 1.22 fold change
AT1G16110 wall associated kinase-like 6 gene expression (Col-0 plants, vs control): 1.46 fold change
AT1G18382 gene expression (Col-0 plants, vs control): 1.39 fold change
AT1G18570 myb domain protein 51 gene expression (Col-0 plants, vs control): 1.46 fold change
AT1G19020 hypothetical protein gene expression (Col-0 plants, vs control): 1.68 fold change
AT1G24145 hypothetical protein gene expression (Col-0 plants, vs control): 1.15 fold change
AT1G27020 hypothetical protein gene expression (Col-0 plants, vs control): 1.06 fold change
AT1G30700 FAD-binding Berberine family protein gene expression (Col-0 plants, vs control): 1.73 fold change
AT1G30755 hypothetical protein gene expression (Col-0 plants, vs control): 1.08 fold change
AT1G36622 hypothetical protein gene expression (Col-0 plants, vs control): 1.62 fold change
AT1G36640 hypothetical protein gene expression (Col-0 plants, vs control): 1.27 fold change
AT1G49000 hypothetical protein gene expression (Col-0 plants, vs control): 1.67 fold change
AT1G51790 leucine-rich repeat protein kinase-like protein gene expression (Col-0 plants, vs control): 1.99 fold change
AT1G51800 putative leucine-rich repeat protein kinase gene expression (Col-0 plants, vs control): 2.44 fold change
AT1G51820 SIF2 gene expression (Col-0 plants, vs control): 6.99 fold change
AT1G51850 Leucine-rich repeat protein kinase family protein gene expression (Col-0 plants, vs control): 4.14 fold change
AT1G51890 probable LRR receptor-like protein kinase gene expression (Col-0 plants, vs control): 1.91 fold change
AT1G51920 hypothetical protein gene expression (Col-0 plants, vs control): 1.55 fold change
AT1G52200 PLAC8 family protein gene expression (Col-0 plants, vs control): 1.57 fold change
AT1G53625 hypothetical protein gene expression (Col-0 plants, vs control): 1.55 fold change
AT1G54050 CIII heat shock protein 17.4 gene expression (Col-0 plants, vs control): 1.36 fold change
AT1G55450 S-adenosyl-L-methionine-dependent methyltransferases superfamily protein gene expression (Col-0 plants, vs control): 1.19 fold change
AT1G59865 hypothetical protein gene expression (Col-0 plants, vs control): 2.57 fold change
AT1G61360 G-type lectin S-receptor-like serine/threonine-protein kinase gene expression (Col-0 plants, vs control): 1.18 fold change
AT1G61560 MLO-like protein 6 gene expression (Col-0 plants, vs control): 1.14 fold change
AT1G64400 long-chain acyl-CoA synthetase gene expression (Col-0 plants, vs control): 1.18 fold change
AT1G65845 hypothetical protein gene expression (Col-0 plants, vs control): 1.99 fold change
AT1G74310 chaperone protein ClpB1 gene expression (Col-0 plants, vs control): 2.87 fold change
AT1G79680 wall-associated receptor kinase-like 10 gene expression (Col-0 plants, vs control): 1.62 fold change
AT2G02010 glutamate decarboxylase 4 gene expression (Col-0 plants, vs control): 1.11 fold change
AT2G15220 basic secretory protein family protein gene expression (Col-0 plants, vs control): 1.08 fold change
AT2G17740 cysteine/histidine-rich C1 domain-containing protein gene expression (Col-0 plants, vs control): 1.04 fold change
AT2G19190 FLG22-induced receptor-like kinase 1 gene expression (Col-0 plants, vs control): 1.38 fold change
AT2G22880 VQ motif-containing protein gene expression (Col-0 plants, vs control): 1.35 fold change
AT2G26150 heat stress transcription factor A-2 gene expression (Col-0 plants, vs control): 2.19 fold change
AT2G26560 phospholipase A 2A gene expression (Col-0 plants, vs control): 2.02 fold change
AT2G27660 cysteine/histidine-rich C1 domain-containing protein gene expression (Col-0 plants, vs control): 1.63 fold change
AT2G29500 HSP20 family protein gene expression (Col-0 plants, vs control): 3.11 fold change
AT2G36220 hypothetical protein gene expression (Col-0 plants, vs control): 1.44 fold change
AT2G36690 2-oxoglutarate (2OG) and Fe(II)-dependent oxygenase superfamily protein gene expression (Col-0 plants, vs control): 1.99 fold change
AT2G38870 PR-6 proteinase inhibitor family protein gene expression (Col-0 plants, vs control): 1.27 fold change
AT2G39200 protein MILDEW RESISTANCE LOCUS O 12 gene expression (Col-0 plants, vs control): 2.09 fold change
AT2G39210 major facilitator protein gene expression (Col-0 plants, vs control): 1.67 fold change
AT2G39518 hypothetical protein gene expression (Col-0 plants, vs control): 2.22 fold change
AT2G43620 chitinase family protein gene expression (Col-0 plants, vs control): 2.15 fold change
AT2G44490 PEN2 gene expression (Col-0 plants, vs control): 1.20 fold change
AT2G46240 BCL-2-associated athanogene 6 gene expression (Col-0 plants, vs control): 2.00 fold change
AT3G08970 J domain protein ATERDJ3A gene expression (Col-0 plants, vs control): 2.46 fold change
AT3G09350 protein Fes1A gene expression (Col-0 plants, vs control): 2.18 fold change
AT3G12580 heat shock protein 70-4 gene expression (Col-0 plants, vs control): 3.24 fold change
AT3G12910 no apical meristem domain-containing transcriptional regulator gene expression (Col-0 plants, vs control): 1.36 fold change
AT3G14200 chaperone DnaJ-domain containing protein gene expression (Col-0 plants, vs control): 2.55 fold change
AT3G15500 ATAF-like NAC-domain transcription factor gene expression (Col-0 plants, vs control): 1.20 fold change
AT3G16030 G-type lectin S-receptor-like serine/threonine-protein kinase CES101 gene expression (Col-0 plants, vs control): 1.47 fold change
AT3G22060 Receptor-like protein kinase-related family protein gene expression (Col-0 plants, vs control): 1.31 fold change
AT3G24500 multiprotein-bridging factor 1c gene expression (Col-0 plants, vs control): 1.75 fold change
AT3G26210 cytochrome P450 71B23 gene expression (Col-0 plants, vs control): 1.35 fold change
